Measurements from the NIST ThermoML archive (doi:10.1016/j.jct.2015.12.027).
± gives the expanded uncertainty stated by the source.

What was measured:
[1] = 81.5 kPa, Liquid, Vibrating tube method
[2] = refractive index (Na D-line) (dimensionless); details: 81.5 kPa, Liquid, Standard Abbe refractometry
[3] = xn = mol fraction of the nth substance listed; details: 81.5 kPa, Liquid, Vibrating tube method
[4] = refractive index (Na D-line) (dimensionless); xn = mol fraction of the nth substance listed; details: 81.5 kPa, Liquid, Standard Abbe refractometry

Compound | mass density ([1]; 293.15 K) | mass density ([1]; 303.15 K) | mass density ([1]; 313.15 K) | mass density ([1]; 323.15 K) | mass density ([1]; 333.15 K) | refractive index ([2]; 293.15 K) | refractive index ([2]; 303.15 K) | refractive index ([2]; 313.15 K) | refractive index ([2]; 323.15 K) | refractive index ([2]; 333.15 K) | mass density ([3]; 293.15 K, x1 = 1) | mass density ([3]; 303.15 K, x1 = 1) | mass density ([3]; 313.15 K, x1 = 1) | mass density ([3]; 323.15 K, x1 = 1) | mass density ([3]; 333.15 K, x1 = 1) | refractive index ([4]; 293.15 K, x1 = 1) | refractive index ([4]; 303.15 K, x1 = 1) | refractive index ([4]; 313.15 K, x1 = 1) | refractive index ([4]; 323.15 K, x1 = 1) | refractive index ([4]; 333.15 K, x1 = 1) | also measured
ClCCCl [1,2-dichloroethane] | 1252.82 ± 10 kg/m3 | 1238.27 ± 10 kg/m3 | 1223.53 ± 10 kg/m3 | 1208.61 ± 10 kg/m3 | 1193.61 ± 10 kg/m3 | 1.44472 ± 0.01 | 1.43948 ± 0.01 | 1.43423 ± 0.01 | 1.42897 ± 0.01 | 1.42373 ± 0.01 |  |  |  |  |  |  |  |  |  |  | 
ClCCCl [1,2-dichloroethane] + Brc1ccccc1 |  |  |  |  |  |  |  |  |  |  | 1252.82 ± 10 kg/m3 | 1238.27 ± 10 kg/m3 | 1223.53 ± 10 kg/m3 | 1208.61 ± 10 kg/m3 | 1193.61 ± 10 kg/m3 | 1.44472 ± 0.01 | 1.43948 ± 0.01 | 1.43423 ± 0.01 | 1.42897 ± 0.01 | 1.42373 ± 0.01 | 
ClCCCl [1,2-dichloroethane] + Clc1ccccc1 |  |  |  |  |  |  |  |  |  |  | 1252.82 ± 10 kg/m3 | 1238.27 ± 10 kg/m3 | 1223.53 ± 10 kg/m3 | 1208.61 ± 10 kg/m3 | 1193.61 ± 10 kg/m3 | 1.44472 ± 0.01 | 1.43948 ± 0.01 | 1.43423 ± 0.01 | 1.42897 ± 0.01 | 1.42373 ± 0.01 | 
ClCCCl [1,2-dichloroethane] + O=[N+]([O-])c1ccccc1 |  |  |  |  |  |  |  |  |  |  | 1252.82 ± 10 kg/m3 | 1238.27 ± 10 kg/m3 | 1223.53 ± 10 kg/m3 | 1208.61 ± 10 kg/m3 | 1193.61 ± 10 kg/m3 | 1.44472 ± 0.01 | 1.43948 ± 0.01 | 1.43423 ± 0.01 | 1.42897 ± 0.01 | 1.42373 ± 0.01 | 
c1ccccc1 [benzene] | 878.87 ± 10 kg/m3 | 868.2 ± 10 kg/m3 | 857.44 ± 10 kg/m3 | 846.62 ± 10 kg/m3 | 835.71 ± 10 kg/m3 | 1.50118 ± 0.01 | 1.49517 ± 0.01 | 1.4885 ± 0.01 | 1.48264 ± 0.01 | 1.47638 ± 0.01 |  |  |  |  |  |  |  |  |  |  | 
c1ccccc1 [benzene] + ClCCCl |  |  |  |  |  |  |  |  |  |  |  |  |  |  |  |  |  |  |  |  | mass density ([3]; 293.15 K, x2 = 0): 878.87 ± 10 kg/m3; mass density ([3]; 303.15 K, x2 = 0): 868.2 ± 10 kg/m3; mass density ([3]; 313.15 K, x2 = 0): 857.44 ± 10 kg/m3; mass density ([3]; 323.15 K, x2 = 0): 846.62 ± 10 kg/m3; mass density ([3]; 333.15 K, x2 = 0): 835.71 ± 10 kg/m3; refractive index ([4]; 293.15 K, x2 = 0): 1.50118 ± 0.01; refractive index ([4]; 303.15 K, x2 = 0): 1.49517 ± 0.01; refractive index ([4]; 313.15 K, x2 = 0): 1.4885 ± 0.01; refractive index ([4]; 323.15 K, x2 = 0): 1.48264 ± 0.01; refractive index ([4]; 333.15 K, x2 = 0): 1.47638 ± 0.01
Brc1ccccc1 [bromobenzene] | 1495.52 ± 10 kg/m3 | 1481.97 ± 10 kg/m3 | 1468.41 ± 10 kg/m3 | 1454.85 ± 10 kg/m3 | 1441.22 ± 10 kg/m3 | 1.55981 ± 0.01 | 1.55442 ± 0.01 | 1.5489 ± 0.01 | 1.54319 ± 0.01 | 1.53742 ± 0.01 |  |  |  |  |  |  |  |  |  |  | 
Clc1ccccc1 [chlorobenzene] | 1106.49 ± 10 kg/m3 | 1095.71 ± 10 kg/m3 | 1084.86 ± 10 kg/m3 | 1073.96 ± 10 kg/m3 | 1063.01 ± 10 kg/m3 | 1.52455 ± 0.01 | 1.51902 ± 0.01 | 1.51346 ± 0.01 | 1.50781 ± 0.01 | 1.50223 ± 0.01 |  |  |  |  |  |  |  |  |  |  | 
O=[N+]([O-])c1ccccc1 [nitrobenzene] | 1203.05 ± 10 kg/m3 | 1193.15 ± 10 kg/m3 | 1183.21 ± 10 kg/m3 | 1173.27 ± 10 kg/m3 | 1163.32 ± 10 kg/m3 | 1.55241 ± 0.01 | 1.54763 ± 0.01 | 1.54288 ± 0.01 | 1.53795 ± 0.01 | 1.53289 ± 0.01 |  |  |  |  |  |  |  |  |  |  | 
